Experimental data reported in PubChem BioAssay AID463203 (Broad Institute, 2010).
Active and inactive are the calls of the source.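 Rule for the calls: active = more than half of replicate measurements showing over 20% loss of kinase signal relative to plate controls; inconclusive = some but at most half of replicates over 20% loss; inactive = no replicate over 20% signal loss.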

Molecular target: Glycogen synthase kinase-3 alpha (Homo sapiens) (UniProt P49840)
Experiment: concentration-response blocking of human GSK3A – biochemical, luminescence, cell-free homogeneous, retest, dose response (AID 463203)
Conditions: GSK-3 alpha enzyme, ADP-Glo luminescence, 60 min

Chain of Glycogen synthase kinase-3 alpha (Homo sapiens) (P49840 whole entry, looked up): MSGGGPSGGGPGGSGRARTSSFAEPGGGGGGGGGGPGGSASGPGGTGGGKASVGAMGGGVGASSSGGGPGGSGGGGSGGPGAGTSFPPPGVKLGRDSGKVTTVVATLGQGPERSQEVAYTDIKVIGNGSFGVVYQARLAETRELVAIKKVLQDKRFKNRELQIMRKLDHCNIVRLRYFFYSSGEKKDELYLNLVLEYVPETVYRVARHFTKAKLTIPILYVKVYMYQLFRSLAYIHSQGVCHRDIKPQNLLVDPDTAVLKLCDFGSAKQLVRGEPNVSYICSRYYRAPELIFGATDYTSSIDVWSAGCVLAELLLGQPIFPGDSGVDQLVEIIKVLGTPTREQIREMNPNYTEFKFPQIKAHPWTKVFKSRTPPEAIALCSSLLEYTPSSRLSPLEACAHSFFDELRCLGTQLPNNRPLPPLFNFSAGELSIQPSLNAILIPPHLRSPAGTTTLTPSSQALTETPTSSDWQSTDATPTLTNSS

SMILES | AC50
O=[N+]([O-])c1ccc(COc2ccccc2/C=N/O)cc1 | > 30 µM (inactive)
Cc1ccc(S(=O)(=O)N2C(=O)/C(=C3\SC(=S)NC3=O)c3ccccc32)cc1 | > 30 µM (inactive)
COc1ccc(/C=C2\Oc3cc(OCC(=O)N4CC(O)C[C@H]4C(=O)O)ccc3C2=O)c(OC)c1OC (stereo not given in full) | > 30 µM (inactive)
CCOc1ccc2nc(NC(=O)CSc3ccccc3)sc2c1 | > 30 µM (inactive)
COc1ccc2cc(C(N)=O)c(=Nc3ccc(C)cc3)oc2c1 | > 30 µM (inactive)
CCOc1cc(/C=N/NC(=O)N/N=C/c2ccc(O)c(OCC)c2)ccc1O | > 30 µM (inactive)
CN1/C(=C\C=C(/C#N)C(=O)Nc2ccccc2F)C(C)(C)c2ccccc21 | > 30 µM (inactive)
Cc1ccc(C)c(Sc2ccc(NC(=O)CCl)cc2)c1 | > 30 µM (inactive)
CN(C)/C=C/c1c([N+](=O)[O-])c2ccc(O)cc2n1-c1ccccc1 | 2.08 µM
O=[N+]([O-])c1ccccc1/C=N/n1c(-c2cccnc2)n[nH]c1=S | 28 µM
O=C(c1ccc(F)cc1)c1cnc(Nc2ccccc2)s1 | > 30 µM (inactive)
NC1=NC(=O)/C(=C\c2ccc(-c3ccc(Cl)cc3)o2)S1 | 1.4 µM
CCN(CC)c1ccc2ccc(=O)oc2c1 | > 30 µM (inactive)
CCc1ccc(NC(=S)NC(=O)CC(C)C)cc1 | > 30 µM (inactive)
O=C(CSCCc1ccccn1)Nc1ccccn1 | > 30 µM (inactive)
O=C1Nc2ccccc2/C1=C/c1cnc(-c2ccccc2)[nH]1 | > 30 µM (inactive)
O=C(Nc1nc2c(s1)CCCC2)c1ccc(Br)o1 | > 30 µM (inactive)
Fc1ccc(/C=N/Nc2nccnc2Cl)cc1 | > 30 µM (inactive)
COc1cc(C(=O)NNC(=O)C2CSC3(C)CCC(=O)N23)cc(OC)c1OC (stereo not given) | > 30 µM (inactive)
O=C(O)c1cc(-c2ccc(/C=N/N3C(=O)C4C5C=CC(C6CC56)C4C3=O)o2)ccc1Cl (stereo not given) | > 30 µM (inactive)
O=C(OC1CO[C@H]2O[C@@H]1[C@H](OC(=O)c1ccccc1)[C@H]2OC(=O)c1ccccc1)c1ccccc1 (stereo not given in full) | > 30 µM (inactive)
Clc1ccccc1C1=Nn2c(nnc2-c2ccncc2)SC1 | 2.35 µM
C/C(=N\NC(=O)c1nnn(-c2nonc2N)c1-c1cccs1)c1ccncc1 | 1.02 µM
COCCCNc1ncnc2nc[nH]c12 | > 30 µM (inactive)
C/C(=N\NC(=O)c1nnn(-c2nonc2N)c1CN(C)C)c1ccco1 | > 30 µM (inactive)
COC(=O)c1sc2cnccc2c1N | 24.8 µM
CCSc1cc(N2CCCC2)nc(-c2ccccc2)n1 | > 30 µM (inactive)

SMILES | AC50
CCCc1cc(C(N)=O)c(NC(C)=O)s1 | 30.8 µM
O=S(=O)(O)c1cccc(N=Nc2c(O)ccc3ccccc23)c1 | 8.34 µM
COc1ccc(NC(=O)/C(C#N)=C\C=C\c2ccco2)cc1 | > 30 µM (inactive)
COc1ccc(S(=O)(=O)N[C@H](C(=O)O)C(C)C)cc1 | > 30 µM (inactive)
O=c1c(O[C@@H]2O[C@H](CO)[C@@H](O)[C@H](O)[C@H]2O)c(-c2ccc(O)cc2)oc2cc(O)cc(O)c12 | 30.4 µM
CC1(C)CC(NC(=O)COc2ccccc2Cl)CC(C)(C)N1 | > 30 µM (inactive)
O=C(/C=C/c1cccc2ccccc12)c1ccncc1 | > 30 µM (inactive)
CN(C)C(=O)c1ccc(NC(=O)c2cc(-n3cnnc3)ccc2Cl)cc1 | > 30 µM (inactive)
c1cncc(-c2nc(NCC3COc4ccccc4O3)c3ccccc3n2)c1 (stereo not given) | 22.9 µM
COc1ccc(-c2cn3cccnc3n2)cc1NC(=O)C1CCCC1 | > 30 µM (inactive)
CCOC(=O)N1CCC(N2CCN(S(=O)(=O)c3ccc(NC(C)=O)cc3)CC2)CC1 | > 30 µM (inactive)
CC(=S)/C=C1\Sc2ccccc2N1C | > 30 µM (inactive)
CCOC(=O)c1c(Cc2ccccc2)c[nH]c1C | > 30 µM (inactive)
CCN(CC)C(=O)c1ccc(NC(=O)Nc2ccccc2F)cc1 | 26.5 µM
O=C1C2C3c4ccccc4C(c4ccccc43)C2C(=O)N1Cc1cccnc1 (stereo not given) | > 30 µM (inactive)
Cc1ccc2cc(C#N)c(N3CCCN(C(=S)NCCCN(C)C)CC3)nc2c1 | > 30 µM (inactive)
CCc1ccc(N2CC(C(=O)Nc3nccs3)CC2=O)cc1 (stereo not given) | > 30 µM (inactive)
CCCCCCN=C(C)c1c(O)n(CCCC)c(=O)[nH]c1=O | > 30 µM (inactive)
CC(=O)OCC1OC(n2ccc(=O)[nH]c2=O)C(O)C1O (stereo not given) | > 30 µM (inactive)
Cc1ccc(N(Cc2ccc([N+](=O)[O-])cc2)C(=O)c2ccco2)cc1 | > 30 µM (inactive)
COc1cccc(/C=N/n2nnnc2N)c1OCC#N | > 30 µM (inactive)
COc1ccc(NC(=O)c2nnn(Cc3cccc(F)c3)c2N)c(OC)c1 | > 30 µM (inactive)
CCc1nnc(NS(=O)(=O)c2ccc(N/C=C(\C=O)c3nc4cc(Cl)ccc4o3)cc2)s1 | 9.24 µM
CCNc1ccc2noc3c2c1C(=O)c1ccccc1-3 | 10.8 µM
COC(=O)C1(C#N)C(c2ccccc2)C1(C(=O)OC)C(=O)OC (stereo not given) | > 30 µM (inactive)
C=CCn1c(O)c(C=NCCCn2ccnc2)c(=O)[nH]c1=O | 14 µM
COc1ccc(NC(=O)Nc2ccccc2F)c(C)c1 | > 30 µM (inactive)

SMILES | AC50
CCOC(=O)c1c(NC(=O)CN2C(=O)NC3(CCCCC3C)C2=O)sc(C)c1C (stereo not given) | > 30 µM (inactive)
CCSc1nc2c(c(=O)[nH]1)C(c1ccc(C)cc1)C1=C(CCCC1=O)N2 (stereo not given) | > 30 µM (inactive)
Clc1ccc(-c2nc3ncccn3c2Nc2ccc3c(c2)OCO3)cc1 | > 30 µM (inactive)
COc1ccc(-c2cn3cccnc3n2)cc1NC(=O)C(C)C | > 30 µM (inactive)
Cc1ccc(CNc2ccc([N+](=O)[O-])cc2C(N)=O)cc1 | > 30 µM (inactive)
COC(=O)C1=C(C)Nc2ncnn2C1c1ccccn1 (stereo not given) | > 30 µM (inactive)
COc1ccccc1NC(=O)CCSc1nnc(-c2ccc(O)cc2)o1 | 8.24 µM
COC(=O)c1oc2ccc(Br)cc2c1NC(=O)c1ccccc1 | > 30 µM (inactive)
N#Cc1cc(-c2cccc(Cl)c2)c[nH]c1=O | > 30 µM (inactive)
CCOC(=O)c1cccnc1NC(=O)c1ccncc1 | > 30 µM (inactive)
Cc1cc2nc(-c3cccnc3SCC(=O)NC3CC3)[nH]c2cc1C | > 30 µM (inactive)
O=C(CCSc1nc(-c2ccco2)cc(C(F)(F)F)n1)NCc1cccs1 | > 30 µM (inactive)
O=C(O)Cn1c(=O)c2c3c(sc2n(Cc2ccccc2)c1=O)CCCC3 | > 30 µM (inactive)
CC1CCN(Cc2c(O)ccc3c2O/C(=C\c2ccco2)C3=O)CC1 | 4.41 µM
CCN(C(=O)CN1CCCCCC1)c1c(N)n(Cc2ccccc2)c(=O)[nH]c1=O | > 30 µM (inactive)
COc1cc(C2CC(=O)N3CN(Cc4ccccc4)CSC3=C2C#N)ccc1OCc1ccccc1 (stereo not given) | > 30 µM (inactive)
Clc1ccc(/C=N/Nc2ncnc3ccccc23)cc1Cl | > 30 µM (inactive)
O=c1[nH]c(=S)n(Cc2ccc(F)cc2)c(O)c1C=NCCCn1ccnc1 | > 30 µM (inactive)
COc1ccc(OC)c(N=c2oc3c(OC)cccc3cc2C(=O)NCc2ccco2)c1 | > 30 µM (inactive)
COc1cc2ncc(S(=O)(=O)c3ccccc3)c(N3CCCC(C)C3)c2cc1OC (stereo not given) | > 30 µM (inactive)
O=C1CCCC/C1=C\Nc1ccc(O)cc1 | 21.6 µM
CCSc1nnc([C@@H](N)Cc2c[nH]c3ccccc23)o1 | > 30 µM (inactive)
CC(=O)Nc1cccc(-c2csc(NCc3ccccc3)n2)c1 | > 30 µM (inactive)
Cc1cccc(NC(=O)c2sc3nc4c(c(-c5cccs5)c3c2N)CN(C)CC4)c1 | > 30 µM (inactive)
O=C(CCn1[nH]c(=O)c2ccccc2c1=O)N1CCOCC1 | > 30 µM (inactive)
N#CC(C#N)=Cc1c[nH]c(=O)c(C#N)c1Nc1ccccc1 | 9.4 µM
COc1ccc(-c2oc3cc(O)c(OC)c(O)c3c(=O)c2OC)cc1 | > 30 µM (inactive)

SMILES | AC50
CCOc1ccc(-c2nnc(N)o2)cc1 | > 30 µM (inactive)
Cc1ccc(N=CC2=C(O)CC(C)(C)CC2=O)nc1 | > 30 µM (inactive)
Cc1c(C(=O)OC(C)C)[nH]c2c1C(=O)CCC2 | > 30 µM (inactive)
Cc1cc2nc(-c3cccnc3SCC(=O)NC(C)C)[nH]c2cc1C | > 30 µM (inactive)
Clc1ccccc1C1=Nn2c(nnc2-c2ccco2)SC1 | 30.4 µM
Oc1ccc(-c2nc3ncccn3c2Nc2ccc3c(c2)OCCO3)cc1 | > 30 µM (inactive)
CSc1nc(NCC(C)C)nc(N2CCOCC2)n1 | > 30 µM (inactive)
CCC(C)Nc1nc(N)c([N+](=O)[O-])c(N2CCCCCC2)n1 (stereo not given) | 10.9 µM
CCOC(=O)c1cc(-c2ccccc2)n(CCC(=O)NC(C)CC)c1C (stereo not given) | > 30 µM (inactive)
O=C1NC(=O)/C(=C/c2ccc(-c3cc(C(=O)O)ccc3Cl)o2)S1 | 13.5 µM
COc1cc2c(cc1OC)-c1c3c(cc4c1[C@@H](C2)N(C)CC4)OCO3 | 24.9 µM
Cc1ccc(-c2cn3cccnc3n2)cc1NC(=O)c1ccc(Br)o1 | > 30 µM (inactive)
Cc1cc(C(C#N)c2ccccc2F)n2ncnc2n1 (stereo not given) | 1.87 µM
COc1cc(/C=C/c2nc(N)nc(-c3ccccc3O)n2)cc(OC)c1OC | > 30 µM (inactive)
CC(C)c1nnc(NC(=O)CCN2C(=O)c3ccccc3C2=O)s1 | > 30 µM (inactive)
C/C(CC(=O)N(C(C)C)C(C)C)=N\NC(=O)COc1ccc(Br)cc1Br | > 30 µM (inactive)
O=[N+]([O-])c1ccc(Nc2nc(Cl)nc(NCCO)n2)cc1 | > 30 µM (inactive)
COc1ccccc1-n1c(O)c(C=NCc2ccc3c(c2)OCO3)c(=O)[nH]c1=O | 31.3 µM
COc1cccc(N(CC(=O)Nc2cccc(C(C)=O)c2)S(C)(=O)=O)c1 | > 30 µM (inactive)
CCOc1ccc(-n2c(O)c(C=NCCCn3ccnc3)c(=O)[nH]c2=O)cc1 | 22.4 µM
COc1ccccc1NC(=O)c1cc(Cl)ccc1NC(=O)c1ccco1 | > 30 µM (inactive)
O=C(Nc1ccccc1C(=O)NC1CCCCC1)c1ccccc1 | > 30 µM (inactive)
Cc1cccc(-c2nnc(SCc3nc4ccccc4[nH]3)n2Cc2ccco2)c1 | > 30 µM (inactive)
COC(=O)CNc1nc(Cl)nc(NC2CCCCC2)n1 | > 30 µM (inactive)
